From patent publication US20250136568A1, “FUSED HETEROCYCLIC COMPOUNDS AS PI3KALPHA INHIBITORS” (Nanjing Zenshine Pharmaceuticals Co., Ltd., priority 2021, published 2025) come the findings set out here.

Where two headings read alike, the source gives them in different places.

By IC50 is commonly meant the concentration that gives 50% inhibition.

Type in all cases: cell-based
In assay [1] the test system is PI3Kα wide type cell line SK-BR-3. Nature of the assay: Cell Proliferation IC50 Assay (CellTiter-Glo), SK-BR-3. To be noted: read-out: IC50 (μM) SK-BR-3. From the text:
(§1) PI3Kα H1047R mutation cell line T-47D and MDA-MB-453, E545K mutation cell line MDA-MB-361 and PI3Kα wide type cell line SK-BR-3 were purchased from Cobioer Biotech (cat. no CBP60397, CBP60386, CBP60383 and CBP60413 respectively). The CellTiter-Glo Direct Cell Proliferation Assay Kit was purchased from Prornega (cat. No. G7573)
(§2) For cell proliferation assay in each cell line: • a. Prepare complete medium (R PMI 1640, DMEM or McCoys): Add FBS and appropriate additives according to the information sheet provided by the vendor. Mix gently. • b. Prepare single cell suspension and count the cell numbers and adjust cells to appropriate density. • c. Add 80 μL of cell suspension to 96-well opaque-walled clear bottom plates according to the planned plate layout and place the plates in the CO2 incubator overnight. • d. Prepare intermediate plate: 10 μl of diluted test compounds or staurosporine solution (200×) is added to a 96 deep well plate. Then 390 μl of culture medium without FBS is added to the respective wells. • e. Transfer 20 μL of the solutions from the above intermediate plate to the wells of the plate prepared containing 80 μL of the culture medium and cells. The total dilution is 200 folds. • f. The cells were then incubated at 5% CO2, 37° C. for 72 hours. • g. Equilibrate the plate and its contents to room temperature for approximately 30 minutes. • h. Add 100 μL of CellTiter-Glo reagent to the assay plate • i. Mix contents for 10 minutes on an orbital shaker to induce cell lysis. • j. Allow the plate to incubate at room temperature for 10 minutes to stabilize luminescent signal, • k. Paste the clear bottom with white back seal and record luminescence with Varioskan LUX plate reader.
(§3) Inhibition % and IC50 value were calculated by the formula described below: […]
For orientation: Cellular ATP, detected with luciferase, serves as a proxy for viable cell number.

Assay [2] has as its system PI3Kα H1047R mutation cell line MDA-MB-453. Kind of assay: Cell Proliferation IC50 Assay (CellTiter-Glo), MDA-MB-453. The settings on record: Homo sapiens; MDA-MB-453 (H1047R), 72 hours, CellTiter-Glo; read-out: IC50 (μM) MDA-MB-453.
Source text: as §1, §2, §3

For assay [3], the system named is PI3Kα H1047R mutation cell line T-47D. Kind of assay: Cell Proliferation IC50 Assay (CellTiter-Glo), T-47D. To be noted: read-out: IC50 (μM) T47D.
Source text: as §1, §2, §3

Setting [4] is: Homo sapiens, SK-BR-3 (PI3Kα wild type), 72 hours, CellTiter-Glo.
Where [5] appears, read: Homo sapiens, T47D, 72 h, T47D (H1047R), 72 hours, CellTiter-Glo.
Setting [6] is: Homo sapiens, T47D (H1047R), 72 hours, CellTiter-Glo.

On to `Cc1cc(C(C)Nc2ccccc2C(=O)O)c2oc(-c3ccc4c(=O)n(C)ncc4c3)cc(=O)c2c1` (stereo not drawn) [Example 122, 2-((1-(6-methyl-2-(2-methyl-1-oxo-1,2-dihydrophthalazin-6-yl)-4-oxo-4H-chromen-8-yl)ethyl)amino)benzoic acid], for which the IC50 in assay [1] (setting [4]) is above 10 µM; in assay [2], 0.56 µM.

Consider `Cc1cc([C@H](C)Nc2ccccc2C(=O)O)c2oc(-c3ccc(N4CCOCC4)cc3)c(C)c(=O)c2c1` (single isomer, unassigned) [Example 53B], for which the values for the IC50 in assay [1] (setting [4]) and in assay [2] were above 10 µM and 2.34 µM, respectively.

For the compound `Cc1cc(C(C)Nc2ccccc2C(=O)O)c2oc(-c3ccc(C(=O)N(C)C)c(C)c3)cc(=O)c2c1` (stereo not drawn) [Example 48, 2-((1-(2-(4-(dimethylcarbamoyl)-3-methylphenyl)-6-methyl-4-oxo-4H-chromen-8-yl)ethyl)amino)benzoic acid], the IC50 in assay [1] (setting [4]) was above 10 µM; in assay [2], 0.76 µM.

`Cc1cc(C(C)Nc2ccccc2C(=O)O)c2oc(C3CCN(c4cccnc4)CC3)c(C)c(=O)c2c1` (stereo not drawn) [Example 125, 2-((1-(3,6-dimethyl-4-oxo-2-(1-(pyridin-3-yl)piperidin-4-yl)-4H-chromen-8-yl)ethyl)amino)benzoic acid]: the IC50 was above 10 µM in assay [1] (setting [4]) and 0.4 µM in assay [2].

Turning to `Cc1cc(C(C)Nc2ccccc2C(=O)O)c2oc(-c3ccc4c(c3)N(C)C(=O)C4)cc(=O)c2c1` (stereo not drawn) [Example 21, 2-((1-(6-methyl-2-(1-methyl-2-oxoindolin-6-yl)-4-oxo-4H-chromen-8-yl)ethyl)amino)benzoic acid], the IC50 in assay [1] (setting [4]) and in assay [2] was above 10 µM throughout.

Consider `Cc1cc([C@@H](C)Nc2ccccc2C(=O)NS(C)(=O)=O)c2oc(-c3ccc4nn(C)cc4c3)cc(=O)c2c1` [Example 158, (R)-2-((1-(6-methyl-2-(2-methyl-2H-indazol-5-yl)-4-oxo-4H-chromen-8-yl)ethyl)amino)-N-(methylsulfonyl)benzamide], for which the half-maximal inhibitory concentration (IC50) in assay [1] (setting [4]) is above 10 µM; in assay [3] (setting [5]), 5.5 µM.

Regarding `Cc1cc([C@@H](C)Nc2ccccc2C(=O)O)c2oc(-c3ccc(OCCN(C)C)nc3)c(C)c(=O)c2c1` [Example 192, (R)-2-((1-(2-(6-(2-(dimethylamino)ethoxy)pyridin-3-yl)-3,6-dimethyl-4-oxo-4H-chromen-8-yl)ethyl)amino)benzoic acid], the half-inhibitory concentration (IC50) is above 10 µM in assay [1] (setting [4]) and 0.1 µM in assay [3] (setting [5]).

On to `Cc1cc([C@@H](C)Nc2ccccc2C(=O)O)c2oc(-c3ccc(Cn4ccnc4)cc3)c(C)c(=O)c2c1` [Example 146, (R)-2-((1-(2-(4-((1H-imidazol-1-yl)methyl)phenyl)-3,6-dimethyl-4-oxo-4H-chromen-8-yl)ethyl)amino)benzoic acid], for which the IC50 in assay [1] (setting [4]) was above 10 µM; in assay [3] (setting [5]), 0.18 µM.

In the case of `Cc1cc([C@@H](C)Nc2ccccc2C(=O)O)c2oc(-c3ccc(OC4CCN(C)C4)cc3)c(C)c(=O)c2c1` (stereo partly drawn) [Example 160, 2-(((1R)-1-(3,6-dimethyl-2-(4-((1-methylpyrrolidin-3-yl)oxy)phenyl)-4-oxo-4H-chromen-8-yl)ethyl)amino)benzoic acid], the half-maximal inhibitory concentration (IC50) was above 10 µM in assay [1] (setting [4]) and 0.065 µM in assay [3] (setting [6]).

For the compound `Cc1cc([C@@H](C)Nc2ccccc2C(=O)O)c2oc(-c3ccc(OCC4CCCN4C)cc3)c(C)c(=O)c2c1` (single isomer, unassigned) [Example 172B], the IC50 in assay [1] (SK-BR-3 (PI3Kα wild type), 72 hours, CellTiter-Glo) was above 10 µM; in assay [3] (T47D (H1047R), 72 hours, CellTiter-Glo) it was 0.063 µM.

Turning to `Cc1cc(C(C)Nc2ccccc2C(=O)O)c2oc(-c3cnc(N4CCOCC4)nc3)cc(=O)c2c1` (stereo not drawn) [Example 152, 2-((1-(6-methyl-2-(2-morpholinopyrimidin-5-yl)-4-oxo-4H-chromen-8-yl)ethyl)amino)benzoic acid], the IC50 in assay [1] (setting [4]) was above 10 µM; in assay [3] (setting [5]), 6.9 µM.

As to `Cc1cc(C(C)Nc2ccccc2P(=O)(O)O)c2oc(-c3ccc4nn(C)cc4c3)c(C)c(=O)c2c1` (stereo not drawn) [Example 176], the IC50 in assay [1] (Homo sapiens, SK-BR-3, 72 h) is above 10 µM; in assay [3] (Homo sapiens, T47D, 72 h), above 10 µM.

Turning to `Cc1cc(C(C)Nc2ncccc2C(=O)O)c2oc(-c3ccc4nn(C)cc4c3)cc(=O)c2c1` (stereo not drawn) [Example 113, 2-((1-(6-methyl-2-(2-methyl-2H-indazol-5-yl)-4-oxo-4H-chromen-8-yl)ethyl)amino)nicotinic acid], the half-inhibitory concentration (IC50) was above 10 µM in assay [1] (setting [4]) and 0.67 µM in assay [3] (setting [5]).

Turning to `COC(=O)N1CCN(c2ccc(-c3oc4c([C@@H](C)Nc5ccccc5C(=O)O)cc(C)cc4c(=O)c3C)cn2)CC1` (single isomer, unassigned) [Example 155A], the half-maximal inhibitory concentration (IC50) in assay [1] (setting [4]) is above 10 µM; in assay [3] (setting [5]), 0.12 µM.

In the case of `CNC(=O)c1ccccc1N[C@H](C)c1cc(C)cc2c(=O)c(C)c(-c3ccc(-c4cnn(C)c4)nc3)oc12` [Example 191, (R)-2-((1-(3,6-dimethyl-2-(6-(1-methyl-1H-pyrazol-4-yl)pyridin-3-yl)-4-oxo-4H-chromen-8-yl)ethyl)amino)-N-methylbenzamide], the IC50 in assay [1] (setting [4]) came to 2.02 µM; in assay [3] (setting [5]), 0.27 µM.

As to `CC(=O)N1CC(c2ccc(-c3cc(=O)c4cc(C)cc(C(C)Nc5ccccc5C(=O)O)c4o3)cc2)C1` (stereo not drawn) [Example 145, 2-((1-(2-(4-(1-acetylazetidin-3-yl)phenyl)-6-methyl-4-oxo-4H-chromen-8-yl)ethyl)amino)benzoic acid], the values for the IC50 in assay [1] (setting [4]) and in assay [3] (setting [5]) were above 10 µM and 1.6 µM, respectively.

In the case of `Cc1cc(C(C)Nc2ccccc2C(=O)O)c2oc(-c3ccc4c(=O)n(C)cnc4c3)cc(=O)c2c1` (stereo not drawn) [Example 121, 2-((1-(6-methyl-2-(3-methyl-4-oxo-3,4-dihydroquinazolin-7-yl)-4-oxo-4H-chromen-8-yl)ethyl)amino)benzoic acid], the values for the IC50 in assay [1] (setting [4]) and in assay [3] (setting [5]) were above 10 µM and 0.76 µM, respectively.

Take `Cc1cc(C(C)Nc2cnccc2C(=O)O)c2oc(-c3ccc4nn(C)cc4c3)cc(=O)c2c1` (stereo not drawn) [Example 112, 3-((1-(6-methyl-2-(2-methyl-2H-indazol-5-yl)-4-oxo-4H-chromen-8-yl)ethyl)amino)isonicotinic acid]: the half-maximal inhibitory concentration (IC50) in assay [1] (setting [4]) and in assay [3] (setting [5]) was above 10 µM each time.

As to `Cc1cc([C@@H](C)Nc2ccccc2C(=O)O)c2oc(-c3ccc(N4CCC[C@H](N(C)C)C4)cc3)c(C)c(=O)c2c1` [Example 168, 2-(((R)-1-(2-(4-((S)-3-(dimethylamino)piperidin-1-yl)phenyl)-3,6-dimethyl-4-oxo-41H-chromen-8-yl)ethyl)amino)benzoic acid], the IC50 in assay [1] (setting [4]) is above 10 µM; in assay [3] (setting [5]), 0.092 µM.

As to `Cc1cc(C(C)Nc2ccccc2C(=O)O)c2oc(-c3ccc4c(c3)CN(C)C4)cc(=O)c2c1` (stereo not drawn) [Example 94, 2-((1-(6-methyl-2-(2-methylisoindolin-5-yl)-4-oxo-4-chromen-8-yl)ethyl)amino)benzoic acid], the 50% inhibitory concentration (IC50) was above 10 µM in assay [1] (setting [4]) and 1.02 µM in assay [3] (setting [5]).

As for `Cc1cc([C@@H](C)Nc2ccccc2C(=O)O)c2oc(-c3ccc(OCC4CCCN4C)cc3)c(C)c(=O)c2c1` (single isomer, unassigned) [Example 172A], the half-inhibitory concentration (IC50) in assay [1] (setting [4]) is above 10 µM; in assay [3] (setting [5]), 0.065 µM.

`Cc1cc([C@@H](C)Nc2ccccc2C(=O)O)c2oc(-c3ccc(C4CN(C)CCO4)cc3)c(C)c(=O)c2c1` (stereo partly drawn) [Example 167, 2-(((1R)-1-(3,6-dimethyl-2-(4-(4-methylmorpholin-2-yl)phenyl)-4-oxo-4H-chromen-8-yl)ethyl)amino)benzoic acid]: the half-maximal inhibitory concentration (IC50) in assay [1] (setting [4]) was 8.34 µM; in assay [3] (setting [6]) it was 0.092 µM.

Take `CC(Nc1ccccc1C(=O)O)c1cc(F)cc2c(=O)cc(-c3ccc4nn(C)cc4c3)oc12` (stereo not drawn) [Example 101, 2-((1-(6-fluoro-2-(2-methyl-2H-indazol-5-yl)-4-oxo-4H-chromen-8-yl)ethyl)amino)benzoic acid]: the IC50 in assay [1] (setting [4]) is above 10 µM; in assay [3] (setting [5]) it was 0.29 µM.

With `Cc1cc([C@@H](C)Nc2ccccc2C(=O)O)c2oc(-c3ccc(N4CC(N(C)C)C4)cc3)c(C)c(=O)c2c1` [Example 170, (R)-2-((1-(2-(4-(3-(dimethylamino)azetidin-1-yl)phenyl)-3,6-dimethyl-4-oxo-4H-chromen-8-yl)ethyl)amino)benzoic acid], the values for the IC50 in assay [1] (setting [4]) and in assay [3] (setting [5]) were above 10 µM and 0.096 µM, respectively.
